“And” between values parts separate entries of the source, which are not always exact repeats. Equal values may be shown once.
Legend:
[1] = system: cisplatin induced emesis in the ferret; test: cisplatin-induced emesis in the ferret; format: in vivo; settings: for anti-emetic effect (in words): emesis model in the ferret, compound A 30 and 100 mg/kg, ondansetron 16 mg/kg; for Number of Emesis periods / Number of Retches / Number of Vomits: 3 h observation
From the text: The preferred model to assess an anti emetic potential in animals is the cisplatin-induced emesis in the ferret in which the effects of 5HT3A and NK1 antagonists have been thoroughly investigated. The method, which detects antiemetic activity, follows that described by Gardner et al (Brit. J. Pharmacol., 116, 3158-3163, 1995).
Sixty minutes before administration of the test substance, ferrets are placed in individual stainless steel cages (40 x 50 x 34 cm) with a grid floor. Then, the animals are challenged with cisplatin (10 mg/kg i.p.), and immediately observed over a 3-hour period for: • Number of ferrets showing retches and vomits; • Latency to first retching (h:min:s); • Latency to first vomiting (h:min:s); • Retching (number of retches); • Vomiting (number of vomits); • Number of emesis periods; • Mean duration of emesis periods (min:s); • Severe behavioral side effects. Retching is defined as a rhythmic respiratory movement against a closed glottis, while vomiting is defined as a forced expulsion of upper gastrointestinal contents.
The assay as described above was used to evaluate the anti emetic effects of melanocortin-4 receptor antagonists.
Eight ferrets were studied per group. The test substance was evaluated at two doses (30 and 100 mg/kg), administered p.o. 90 minutes before cisplatin, and compared with an appropriate vehicle control group (vehicle administered 90 minutes before cisplatin).
Quantitative data was analyzed by comparing treated groups with vehicle control using unpaired Student's t tests.
Comparison between treated groups and vehicle control was done using Mann-Whitney U tests.

[2] = biological target: MC-4 receptor (Homo sapiens, UniProt P32245); test: block of the MC-4 receptor (internal finding, no method given)
[3] = group mean (8 ferrets), Compound A 30 mg/kg p.o. 1.5 h before cisplatin 10 mg/kg i.p.
[4] = group mean (8 ferrets), Compound A 100 mg/kg p.o. 1.5 h before cisplatin 10 mg/kg i.p.
[5] = individual animal, Compound A 30 mg/kg p.o. 1.5 h before cisplatin 10 mg/kg i.p.
[6] = individual animal, Compound A 100 mg/kg p.o. 1.5 h before cisplatin 10 mg/kg i.p.
[7] = group mean (8 ferrets), Ondansetron 16 mg/kg p.o. 1 h before cisplatin 10 mg/kg i.p.
[8] = individual animal, Ondansetron 16 mg/kg p.o. 1 h before cisplatin 10 mg/kg i.p.

Chain of MC-4 receptor (P32245 whole entry): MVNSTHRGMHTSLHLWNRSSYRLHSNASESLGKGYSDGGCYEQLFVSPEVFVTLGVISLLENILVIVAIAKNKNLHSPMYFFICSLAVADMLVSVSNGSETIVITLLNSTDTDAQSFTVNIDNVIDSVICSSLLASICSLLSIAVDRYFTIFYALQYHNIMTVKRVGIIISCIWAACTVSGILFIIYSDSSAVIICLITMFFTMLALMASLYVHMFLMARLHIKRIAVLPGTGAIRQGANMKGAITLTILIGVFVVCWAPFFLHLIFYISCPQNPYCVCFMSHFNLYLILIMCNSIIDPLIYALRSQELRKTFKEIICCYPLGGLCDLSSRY

CC[C@H](COc1cccnc1C1CCN(C(=O)[C@@H](Cc2ccc(Cl)cc2Cl)NC(=O)N2CCCC2)CC1)N1CCCC1 [Compound A]
anti-emetic effect (in words) [1]: pronounced anti-emetic properties
Number of Emesis periods [1, 3]: 6.4
Number of Retches [1, 3]: 64.4
Number of Vomits [1, 3]: 2.4
Number of Emesis periods [1, 4]: 2.3
Number of Retches [1, 4]: 19.9
Number of Vomits [1, 4]: 0.8
Number of Emesis periods [1, 5]: 14 and 4 and 7 and 0 (2×) and 3 and 13 and 10
Number of Retches [1, 5]: 156 and 26 and 90 and 0 (2×) and 41 and 118 and 84
Number of Vomits [1, 5]: 9 and 0 (3×) and 2 (2×) and 1 and 5
Number of Emesis periods [1, 6]: 5 and 0 (4×) and 1 and 8 and 4
Number of Retches [1, 6]: 28 and 0 (4×) and 10 and 83 and 38
Number of Vomits [1, 6]: 2 (3×) and 0 (5×)

Cc1nccn1CC1CCc2c(c3ccccc3n2C)C1=O (stereo not shown) [Ondansetron, ondansetron, reference compound]
anti-emetic effect (in words) [1]: clear anti-emetic effect
Number of Emesis periods [1, 7]: 5.0
Number of Retches [1, 7]: 41.1
Number of Vomits [1, 7]: 1.9
Number of Emesis periods [1, 8]: 0 (4×) and 14 (2×) and 3 and 9
Number of Retches [1, 8]: 0 (4×) and 113 and 26 and 56 and 134
Number of Vomits [1, 8]: 0 (5×) and 2 and 6 and 7
block of the MC-4 receptor [2]: doesn't block
separation between 5HT3 and MC-4 [2]: more than 10000 fold

From patent EP2072050A1, “Compounds with anti-emetic effect” (Santhera Pharmaceuticals (Schweiz) AG, priority 2007, dated 2009)
